“And” between values parts separate entries of the source, which are not always exact repeats. Equal entries are not always repeated.
System: K12877-001-R-J1-PDC complex spheroid viability
Test: Anticancer human tumor K12877-001-R-J1-PDC patient-derived lung adenocarcinoma cell line growth inhibition [RAS]
Settings: for viability, T/C: stronger effect = lower value
Description: RAS pathway inhibitors in Combinations in Complex Spheroids
A high-throughput screen of multi-cell type tumor spheroids was designed to identify active combinations of RAS pathway inhibitors and targeted small molecules. Complex spheroids include a stromal component modeled by human endothelial cells (HUVEC) and fibroblasts modeled by human mesenchymal stem cells (MSCs). The concentration ranges selected for each drug and investigational agent were based upon clinically achievable concentrations if the clinical Cmax of the agent was known.
Compounds. The drugs and investigational agents: abemaciclib (NSC768073), cobimetinib (NSC768068), divarasib (GDC6063, NSC841802), docetaxel (NSC628503), GDC-1971 (RLY-1971, NSC841576), gemcitabine (NSC613327), inavolisib (NSC800729), ipatasertib (NSC767898), KB-0742 (NSC834161), MRTX-1133 (NSC836407), osimertinib (NSC779217), RMC-4630 (NSC839698), RMC-6236 (NSC851965), RMC-6291 (NSC852671), Ro-3306 (NSC812927), sapanisertib (NSC764658), SN-38 (NSC673596), staurosporine (NSC755774), SY5609 (NSC837396), and tovorafenib (DAY101, NSC766906), were obtained from the National Cancer Institute (NCI) Developmental Therapeutics Program Chemical Repository. The FDA-approved anticancer drug set is available from the NCI Developmental Therapeutics Program. […] The stock solutions were prepared in dimethyl sulfoxide (DMSO, Sigma-Aldrich, St. Louis, MO, cat. D2650) at 800-fold the tested concentration and stored at -70 degrees C prior to their use. All drugs and investigational agents were tested over a range starting from a high concentration at or near the clinical Cmax and decreasing in half-log increments. If the clinical Cmax for an agent had not been determined, the highest concentration tested was 10 microM.
Cell Culture. All cells were maintained in an incubator at 37 degrees C and 5% CO2 with 95% humidity. The PDC lines were cultured according to standard operating procedures established by the NCI PDMR. All PDCs were thawed and cultured in Matrigel-coated flasks prepared with a working solution of 1X Ham's F-12 nutrient mix, without supplementation (Invitrogen, Waltham, MA, cat. 11765054), 100 U/mL penicillin-streptomycin (Invitrogen, cat. 15140122), and 2.5% Matrigel (Corning Inc., Corning, NY, cat. 354248) for the first three passages. The 362531-283-R-J2-PDC and 782815-120-R-J1-PDC lines were cultured in 6C/Colon 1B media, which includes advanced DMEM/F-12 (Thermo Fisher Scientific, cat. 12634028), 10 mM HEPES (Thermo Fisher Scientific, cat. 15630080), 1X GlutaMAX supplement (Thermo Fisher Scientific, cat. 35050061), 0.1 mg/mL primocin (InvivoGen, San Diego, CA, cat. ant-pm-2), 10% defined fetal bovine serum, heat inactivated (HyClone Laboratories Inc., Logan, UT, cat. SH30070.03HI), 50% L-WRN conditioned media (ATCC, cat. CRL-3276), 1.25 mM N-Acetyl-L-cysteine (Sigma-Aldrich, cat. A9165), 10 mM nicotinamide (Sigma-Aldrich, cat. N0636), 1X B-27 supplement (Thermo Fisher Scientific, cat. 17504044), 1X N-2 supplement (Thermo Fisher Scientific, cat. 17502048), 50 ng/mL human EGF (Thermo Fisher Scientific, cat. PHG0311), and 10 microM Y-27632 dihydrochloride (Tocris Bioscience, cat. 1254). The K12877-001-R-J1-PDC line was cultured in 6I media, which includes all 6C/Colon 1B media plus 10 ng/mL human FGF-10 (PeproTech, cat. 100-26), 1 ng/mL human FGF-2 (PeproTech, cat. 100-18B), 1 µM prostaglandin E2 (Tocris Bioscience, cat. 2296), […] hydrocortisone (Sigma-Aldrich, cat. H4001), and […] bovine insulin (Sigma-Aldrich, cat. I6634). The K86415-001-R-J1-PDC line was cultured in 6D media, which includes all 6C/Colon 1B media components minus the L-WRN conditioned media. The 485176-168-R4-J1-PDC was cultured in PANC media, which includes all 6C/Colon 1B media plus 100 ng/mL human FGF-10 (PeproTech, cat. 100-26), 500 nM SB-431542 (Selleckchem, cat. S1067), and 10 nM gastrin (Tocris Bioscience, cat. 3006). […]

[1] = compound alone, run of 09/09/2024
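Note: spheroids exposed to agents for one week before readout.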

Row | IC50 (curve of compound) | SMILES | viability, T/C (compound 0.0316 µM) | viability, T/C (compound 0.1 µM) | viability, T/C (compound 0.316 µM) | viability, T/C (compound 1 µM) | viability, T/C (compound 10 µM) | viability, T/C (compound 0.00316 µM) | other results
1 | > 1000 nM | C=CC(=O)N1CCN(c2nc(OCC3CCCN3C)nc3c(F)c(-c4nc(N)cc(C)c4C(F)(F)F)c(Cl)cc23)C(C)C1 (centres undefined) |  | 87.8% [middle of 12 runs] | 86% [middle of 12 runs] |  |  | 99.2% [middle of 12 runs] | IC50 [1]: > 1000 nM
2 | > 1000 nM | C=CC(=O)Nc1cc(Nc2nccc(-c3cn(C)c4ccccc34)n2)c(OC)cc1N(C)CCN(C)C | 106% [middle of 4 runs] | 101% [middle of 4 runs] | 103% [middle of 4 runs] | 90.8% [middle of 4 runs] |  | 108% [middle of 4 runs] | viability, T/C (compound 0.01 µM): 106% [middle of 4 runs]
3 | 27.1 nM [middle of 4 runs] | CC1(C)CCC(Nc2ncc(C(F)(F)F)c(-c3c[nH]c4c(P(C)(C)=O)c(C#N)ccc34)n2)CN1 (centres undefined) |  |  |  |  |  |  | viability, T/C (compound 0.000949 µM): 102% [middle of 4 runs]; viability, T/C (compound 0.03 µM): 44.5% [middle of 4 runs]; viability, T/C (compound 0.0949 µM): 33% [middle of 4 runs]; viability, T/C (compound 0.3 µM): 28.3% [middle of 4 runs]
4 | > 1000 nM | CCN1CCN(Cc2ccc(Nc3ncc(F)c(-c4cc(F)c5nc(C)n(C(C)C)c5c4)n3)nc2)CC1 | 100% [middle of 4 runs] | 103% [middle of 4 runs] | 123% [middle of 4 runs] | 96.6% [middle of 4 runs] |  | 104% (2×) and 108% and 116% | viability, T/C (compound 0.01 µM): 96.5% [middle of 4 runs]
5 | 5.02 nM [middle of 4 runs] | CCc1c2c(nc3ccc(O)cc13)-c1cc3c(c(=O)n1C2)COC(=O)[C@]3(O)CC |  |  |  |  |  |  | viability, T/C (compound 0.000949 µM): 99.2% [middle of 4 runs]; viability, T/C (compound 0.00949 µM): 14% [middle of 4 runs]; viability, T/C (compound 0.03 µM): 5.09% [middle of 4 runs]; viability, T/C (compound 0.0949 µM): 3.24% [middle of 4 runs]; viability, T/C (compound 0.3 µM): 1.19% [middle of 4 runs]
6 | > 10000 nM | Cc1nc(N2CCC3(CC2)COC(C)C3N)c(CO)nc1Sc1ccnc(N)c1Cl (centres undefined) |  | 92.8% [middle of 4 runs] | 92.2% [middle of 4 runs] | 93.8% [middle of 4 runs] | 79.5% [middle of 4 runs] |  | 
7 | > 10000 nM and 3820 nM | NC1c2ccccc2OC12CCN(c1cnc3c(N4CCCc5ncccc54)n[nH]c3n1)CC2 (centres undefined) | 100% [middle of 4 runs] | 97.9% [middle of 4 runs] |  |  | 51.5% [middle of 4 runs] |  | 
8 | > 1000 nM and 496 nM | O=C(c1ccc(F)c(F)c1Nc1ccc(I)cc1F)N1CC(O)([C@@H]2CCCCN2)C1 | 94.9% [middle of 4 runs] | 81.3% [middle of 4 runs] | 81.6% [middle of 4 runs] |  |  | 109% [middle of 4 runs] | viability, T/C (compound 0.01 µM): 93.5% [middle of 4 runs]

Second part, the compound before the results:

Row | SMILES | IC50 (curve of compound) | viability, T/C (compound 0.0316 µM) | viability, T/C (compound 0.1 µM) | viability, T/C (compound 0.316 µM) | viability, T/C (compound 1 µM) | viability, T/C (compound 10 µM) | viability, T/C (compound 0.00316 µM) | other results
9 | C#Cc1c(F)ccc2cc(O)cc(-c3ncc4c(N5CC6CCC(C5)N6)nc(OCC56CCCN5CC(F)C6)nc4c3F)c12 (centres undefined) |  | 105% [middle of 8 runs] | 107% [middle of 8 runs] | 110% [middle of 8 runs] | 110% [middle of 8 runs] | 96.5% [middle of 8 runs] |  | viability, T/C (compound 3.16 µM): 101% [middle of 8 runs]; IC50 [1]: > 10000 nM
10 | CC(=O)OC12COC1CC(O)C1(C)C(=O)C(O)C3=C(C)C(OC(=O)C(O)C(NC(=O)OC(C)(C)C)c4ccccc4)CC(O)(C(OC(=O)c4ccccc4)C21)C3(C)C (centres undefined) | < 31.6 nM | 8.58% [middle of 4 runs] | 6.5% [middle of 4 runs] | 5.06% [middle of 4 runs] | 4.96% [middle of 4 runs] | 15% [middle of 4 runs] |  | viability, T/C (compound 3.16 µM): 6.68% [middle of 4 runs]
11 | CC(C)NCC(C(=O)N1CCN(c2ncnc3c2C(C)CC3O)CC1)c1ccc(Cl)cc1 (centres undefined) |  | 107% and 110% (2×) and 97.4% | 102% [middle of 4 runs] |  |  |  |  | 
12 | CC(C)n1nc(-c2ccc3oc(N)nc3c2)c2c(N)ncnc21 | 25.1 nM [middle of 4 runs] | 41.3% [middle of 4 runs] | 15.5% and 26.6% (2×) and 20% |  |  |  | 98.2% [middle of 4 runs] | viability, T/C (compound 0.000316 µM): 105% [middle of 4 runs]
13 | CC(Nc1ccc2c(c1)OCCn1cc(N3C(=O)OCC3C(F)F)nc1-2)C(N)=O (centres undefined) |  | 91.3% [middle of 4 runs] |  |  | 69.9% [middle of 4 runs] |  |  | 
14 | CC1(O)CCCC1n1c(=O)c(C(F)F)cc2cnc(NC3CCN(S(C)(=O)=O)CC3)nc21 (centres undefined) |  | 99.7% [middle of 4 runs] |  |  |  | 3.53% [middle of 4 runs] |  | 
15 | CCC(CC)c1cc(NC2CCC(N)C2)n2nccc2n1 (centres undefined) | 1.65 µM [middle of 4 runs] | 104% [middle of 4 runs] | 87.1% [middle of 4 runs] | 103% [middle of 4 runs] | 86.7% [middle of 4 runs] | 1.41% [middle of 4 runs] |  | viability, T/C (compound 3.16 µM): 2.99% [middle of 4 runs]
16 | CCn1c(-c2cc(N3CCN(C)CC3)cnc2C(C)OC)c2c3cc(ccc31)-c1csc(n1)CC(NC(=O)C1CC1C)C(=O)N1CCCC(N1)C(=O)OCC(C)(C)C2 (centres undefined) |  |  |  |  |  |  |  | viability, T/C (compound 0.000949 µM): 81.8% [middle of 8 runs]; viability, T/C (compound 0.003 µM): 72.1% [middle of 8 runs]; viability, T/C (compound 0.00949 µM): 67.8% [middle of 8 runs]; viability, T/C (compound 0.0949 µM): 107% [middle of 8 runs]; viability, T/C (compound 0.3 µM): 97.1% [middle of 7 runs]; IC50 (compound alone, run of 08/26/2024): > 300 nM
17 | CCn1c(-c2cccnc2C(C)OC)c2c3cc(ccc31)N1CCOC(CC(NC(=O)C(C(C)C)N(C)C(=O)C3(F)CCN(C(=O)C#CC(C)(C)N(C)C)CC3)C(=O)N3CCCC(N3)C(=O)OCC(C)(C)C2)C1 (centres undefined) |  |  |  |  |  |  |  | viability, T/C (compound 0.000949 µM): 86.3% [middle of 8 runs]; viability, T/C (compound 0.003 µM): 81.2% [middle of 8 runs]; viability, T/C (compound 0.00949 µM): 79.2% [middle of 8 runs]; viability, T/C (compound 0.03 µM): 79% [middle of 8 runs]; viability, T/C (compound 0.0949 µM): 72.1% [middle of 8 runs]; viability, T/C (compound 0.3 µM): 72.7% [middle of 8 runs]; IC50 (compound alone, run of 08/20/2024): > 300 nM
18 | C[C@@H](NC(=O)c1ncnc(N)c1Cl)c1ncc(C(=O)Nc2cc(C(F)(F)F)c(Cl)cn2)s1 | > 10000 nM | 110% [middle of 4 runs] | 99.7% [middle of 4 runs] | 95% [middle of 4 runs] | 103% [middle of 4 runs] | 95.4% [middle of 4 runs] |  | viability, T/C (compound 3.16 µM): 100% [middle of 4 runs]
19 | Nc1ccn(C2OC(CO)C(O)C2(F)F)c(=O)n1 (centres undefined) | 17.6 nM [middle of 4 runs] | 7.36% [middle of 4 runs] | 5.6% [middle of 4 runs] | 5.52% [middle of 4 runs] | 5.95% [middle of 4 runs] |  | 105% [middle of 4 runs] | viability, T/C (compound 0.01 µM): 90.8% [middle of 4 runs]

Source: PubChem BioAssay AID2060894 (Molecular Pharmacology Branch, DTP, NCI, 2025)
